Where “and” joins values, the source holds several entries; their conditions need not be identical. Equal entries are not always repeated. Where two headings read alike, the source gives them in different places.
Assays:
Sphaerotheca fuliginea = assay: in vivo preventive test on Sphaerotheca test (cucumbers); conditions: 7 days after inoculation
Experimental: After the spray coating has dried on, the plants are inoculated with an aqueous spore suspension of Sphaerotheca fuliginea. The plants are then placed in a greenhouse at approximately 23° C. and a relative atmospheric humidity of approximately 70%.
(§1) The test is evaluated 7 days after the inoculation.

Venturia inaequalis = assay: in vivo preventive test on Venturia test (apples); conditions: 10 days after inoculation
Experimental: The plants are then placed in a greenhouse at approximately 21° C. and a relative atmospheric humidity of approximately 90%.
The test is evaluated 10 days after the inoculation.

Phakopsora pachyrhizi = assay: in vivo preventive test on Phakopsora test (soybeans); conditions: 7 days after inoculation
Experimental: After the spray coating has dried on, the plants are inoculated with an aqueous spore suspension of the causal agent of soybean rust (Phakopsora pachyrhizi) and stay for 24 h without light in an incubation cabinet at approximately 24° C. and a relative atmospheric humidity of 95%. The plants remain in the incubation cabinet at approximately 24° C. and a relative atmospheric humidity of approximately 80% and a day/night interval of 12 h.
as §1

Alternaria solani = assay: in vivo preventive test on Alternaria test (tomatoes); conditions: 3 days after inoculation
Experimental: After the spray coating has dried on, the plants are inoculated with an aqueous spore suspension of Alternaria solani.
The test is evaluated 3 days after the inoculation.

Botrytis cinerea = assay: in vivo preventive test on Botrytis test (beans); conditions: size of lesions 2 days after inoculation
Experimental: Solvent: 24.5 parts by weight of acetone • 24.5 parts by weight of dimethylacetamide Emulsifier: 1 part by weight of alkylaryl polyglycol ether
After the spray coating has dried on, 2 small pieces of agar covered with growth of Botrytis cinerea are placed on each leaf. The inoculated plants are placed in a darkened chamber at 20° C. and a relative atmospheric humidity of 100%.
2 days after the inoculation, the size of the lesions on the leaves is evaluated.

Puccinia triticina = assay: in vivo preventive Puccinia triticina test (wheat); conditions: 8 days after inoculation
Experimental: After the spray coating has been dried, the plants are sprayed with a spore suspension of Puccinia triticina.
(§2) The test is evaluated 8 days after the inoculation.

Leptosphaeria nodorum = assay: in vivo preventive Leptosphaeria nodorum test (wheat); conditions: 8 days after inoculation
Experimental: After the spray coating has been dried, the plants are sprayed with a spore suspension of Leptosphaeria nodorum. […] The plants are placed in the greenhouse at a temperature of approximately 25° C. and a relative atmospheric humidity of approximately 80%.
as §2

Fusarium graminearum = format: in vivo; conditions: barley, 5 days after inoculation
Uromyces appendiculatus = assay: in vivo preventive test on Uromyces test (beans); conditions: 10 days after inoculation
Experimental: The plants are then placed in a greenhouse at approximately 21° C. and a relative atmospheric humidity of approximately 90%. The test is evaluated 10 days after the inoculation.

Pyrenophora teres = assay: in vivo preventive Pyrenophora teres test (barley); conditions: 8 days after inoculation
Experimental: After the spray coating has been dried, the plants are sprayed with a spore suspension of Pyrenophora teres.
as §2

[1] = test system: Blumeria graminis f.sp. hordei; assay: in vivo preventive Blumeria test (barley); conditions: 7 days after inoculation
Septoria tritici = assay: in vivo preventive Septoria tritici test (wheat); conditions: 21 days after inoculation
Experimental: After the spray coating has been dried, the plants are sprayed with a spore suspension of Septoria tritici. […] The plants are placed in the greenhouse at a temperature of approximately 15° C. and a relative atmospheric humidity of approximately 80%.
The test is evaluated 21 days after the inoculation.

[2] = test system: Fusarium nivale (var. majus); assay: in vivo preventive Fusarium nivale (var. majus) test (wheat); conditions: 5 days after inoculation
Experimental: After the spray coating has been dried, the plants are slightly injured by using a sandblast and afterwards they are sprayed with a conidia suspension of Fusarium nivale (var. majus). The plants are placed in the greenhouse under a translucent incubation cabinet at a temperature of approximately 10° C. and a relative atmospheric humidity of approximately 100%.
The test is evaluated 5 days after the inoculation.

Row | Compound | Efficacy in % found (Phakopsora pachyrhizi; 0.25 ppm a.i.) | Efficacy in % found (Alternaria solani; 0.5 ppm a.i.) | Efficacy in % found (Alternaria solani; 1 ppm a.i.) | Efficacy in % found (Leptosphaeria nodorum; 50 ppm a.i.) | Efficacy in % found (Leptosphaeria nodorum; 100 ppm a.i.) | Efficacy in % found (Phakopsora pachyrhizi; 0.5 ppm a.i.) | Efficacy in % found (Fusarium graminearum; 50 ppm a.i.) | Efficacy in % found (Puccinia triticina; 25 ppm a.i.) | Efficacy in % found (Puccinia triticina; 50 ppm a.i.) | Efficacy in % found ([1]; 25 ppm a.i.) | Efficacy in % found (Septoria tritici; 25 ppm a.i.) | Efficacy in % found (Septoria tritici; 50 ppm a.i.) | Efficacy in % found (Leptosphaeria nodorum; 25 ppm a.i.) | further results
1 | OC(Cn1cncn1)(c1ccc(F)cc1)c1ccccc1F (centres unmarked) [1.22, flutriafol] | 0% | 0% | 0% |  |  |  |  |  |  |  |  |  |  | Efficacy in % found (Sphaerotheca fuliginea; 1 ppm a.i.): 24%; Efficacy in % found (Venturia inaequalis; 0.25 ppm a.i.): 0%; Efficacy in % found (Venturia inaequalis; 0.5 ppm a.i.): 0%; Efficacy in % found (Venturia inaequalis; 1 ppm a.i.): 8%; Efficacy in % found (Phakopsora pachyrhizi; 1 ppm a.i.): 0%; Efficacy in % found (Alternaria solani; 0.25 ppm a.i.): 0%; Efficacy in % found (Botrytis cinerea; 0.25 ppm a.i.): 0%; Efficacy in % found (Botrytis cinerea; 0.5 ppm a.i.): 15%; Efficacy in % found (Botrytis cinerea; 1 ppm a.i.): 30%
2 | CCCC1CC(C)(C)c2cccc(NC(=O)c3cccnc3C(F)F)c21 (centres unmarked) [(I-5), 2-(difluoromethyl)-N-(1,1-dimethyl-3-propyl-2,3-dihydro-1H-inden-4-yl)nicotinamide] | 43% and 60% |  |  | 38% | 38% | 78% and 89% | 29% |  |  |  |  |  |  | Efficacy in % found (Puccinia triticina; 12.5 ppm a.i.): 30%; Efficacy in % found (Fusarium graminearum; 25 ppm a.i.): 0%; Efficacy in % found (Uromyces appendiculatus; 0.5 ppm a.i.): 95%
3 | propiconazole [1.40] |  |  |  |  | 25% |  |  | 25% | 0% and 10% | 43% and 80% | 0% | 0% |  | Efficacy in % found (Pyrenophora teres; 25 ppm a.i.): 22%; Efficacy in % found (Pyrenophora teres; 50 ppm a.i.): 13% and 25%; Efficacy in % found (Pyrenophora teres; 100 ppm a.i.): 25%; Efficacy in % found (Septoria tritici; 100 ppm a.i.): 38%
4 | CC[C@@H]1CC(C)(C)c2cccc(NC(=O)c3cccnc3C(F)F)c21 [(I-4), 2-(difluoromethyl)-N-[(3R)-3-ethyl-1,1-dimethyl-2,3-dihydro-1H-inden-4-yl]nicotinamide] | 33% and 65% |  | 40% | 0% |  | 75% |  |  |  |  | 75% | 75% |  | Efficacy in % found ([2]; 12.5 ppm a.i.): 13%; Efficacy in % found ([2]; 25 ppm a.i.): 13%; Efficacy in % found ([1]; 50 ppm a.i.): 0%; Efficacy in % found (Venturia inaequalis; 0.5 ppm a.i.): 16%
5 | cyproconazole [1.5] |  |  |  | 0% |  |  |  | 70% | 80% |  |  | 50% |  | Efficacy in % found (Pyrenophora teres; 25 ppm a.i.): 25% and 22%; Efficacy in % found (Pyrenophora teres; 50 ppm a.i.): 25%; Efficacy in % found (Pyrenophora teres; 100 ppm a.i.): 0%; Efficacy in % found (Septoria tritici; 100 ppm a.i.): 17%; Efficacy in % found (Leptosphaeria nodorum; 12.5 ppm a.i.): 0%
6 | CCC[C@@H]1CC(C)(C)c2cccc(NC(=O)c3cccnc3C(F)F)c21 [(I-6), 2-(difluoromethyl)-N-[(3R)-1,1-dimethyl-3-propyl-2,3-dihydro-1H-inden-4-yl]nicotinamide] | 60% and 75% |  | 27% | 14% |  |  |  |  |  | 40% |  | 75% |  | Efficacy in % found (Alternaria solani; 0.25 ppm a.i.): 16%
7 | CC(C)(C)C(O)(CCc1ccc(Cl)cc1)Cn1cncn1 (centres unmarked) [1.47, tebuconazole] | 0% | 8% and 0% |  |  |  | 0% |  |  |  |  |  |  |  | Efficacy in % found (Alternaria solani; 0.25 ppm a.i.): 0%; Efficacy in % found (Uromyces appendiculatus; 0.25 ppm a.i.): 0%; Efficacy in % found (Uromyces appendiculatus; 0.5 ppm a.i.): 0%; Efficacy in % found (Uromyces appendiculatus; 1 ppm a.i.): 0%
8 | Fc1ccc([C@]2(Cn3cncn3)O[C@H]2c2ccccc2Cl)cc1 (racemic) [1.12, epoxiconazole] |  |  |  | 57% |  |  | 0% | 40% |  | 30% | 0% | 63% and 33% | 43% | Efficacy in % found ([2]; 12.5 ppm a.i.): 13%; Efficacy in % found ([1]; 12.5 ppm a.i.): 14%
9 | CC1(C)CCC(Cc2ccc(Cl)cc2)C1(O)Cn1cncn1 (centres unmarked) [1.30, metconazole] |  |  |  |  |  |  | 14% | 20% | 10% | 93% and 80% | 17% | 33% | 0% | Efficacy in % found (Puccinia triticina; 12.5 ppm a.i.): 0%; Efficacy in % found ([1]; 50 ppm a.i.): 93%
10 | difenoconazole [1.7] |  |  |  | 29% and 43% | 13% |  | 0% | 20% | 50% |  |  | 0% | 29% | Efficacy in % found (Pyrenophora teres; 12.5 ppm a.i.): 22%; Efficacy in % found (Pyrenophora teres; 50 ppm a.i.): 13%; Efficacy in % found ([2]; 12.5 ppm a.i.): 0%; Efficacy in % found (Puccinia triticina; 12.5 ppm a.i.): 0%; Efficacy in % found ([1]; 50 ppm a.i.): 60% and 71% and 40%; Efficacy in % found (Fusarium graminearum; 100 ppm a.i.): 0%
11 | OC(Cc1ccccc1Cl)(Cn1nc[nH]c1=S)C1(Cl)CC1 (centres unmarked) [1.41, prothioconazole] | 0% | 15% and 8% | 15% |  |  | 0% |  |  |  |  |  |  |  | Efficacy in % found (Venturia inaequalis; 1 ppm a.i.): 0%; Efficacy in % found (Uromyces appendiculatus; 0.25 ppm a.i.): 0%; Efficacy in % found (Uromyces appendiculatus; 1 ppm a.i.): 0%
12 | CCC1CC(C)(C)c2cccc(NC(=O)c3cccnc3C(F)F)c21 (centres unmarked) [(I-3), 2-(difluoromethyl)-N-(3-ethyl-1,1-dimethyl-2,3-dihydro-1H-inden-4-yl)nicotinamide] |  | 23% |  | 14% | 43% |  |  |  |  | 0% |  |  | 0% | Efficacy in % found (Sphaerotheca fuliginea; 0.5 ppm a.i.): 0%; Efficacy in % found (Septoria tritici; 100 ppm a.i.): 83%; Efficacy in % found (Venturia inaequalis; 1 ppm a.i.): 11%; Efficacy in % found (Fusarium graminearum; 25 ppm a.i.): 0%; Efficacy in % found (Uromyces appendiculatus; 0.25 ppm a.i.): 90%
